# According to ChEMBL document CHEMBL1143760, “Stereoselective synthesis of beta-1-C-substituted 1,4-dideoxy-1,4-imino-D-galactitols and evaluation as UDP-galactopyranose mutase inhibitors” (Bioorg Med Chem, 2007):
# Biological target: T1, UDP-galactopyranose mutase (Escherichia coli K-12) (UniProt P37747)
# T1 sequence (whole entry): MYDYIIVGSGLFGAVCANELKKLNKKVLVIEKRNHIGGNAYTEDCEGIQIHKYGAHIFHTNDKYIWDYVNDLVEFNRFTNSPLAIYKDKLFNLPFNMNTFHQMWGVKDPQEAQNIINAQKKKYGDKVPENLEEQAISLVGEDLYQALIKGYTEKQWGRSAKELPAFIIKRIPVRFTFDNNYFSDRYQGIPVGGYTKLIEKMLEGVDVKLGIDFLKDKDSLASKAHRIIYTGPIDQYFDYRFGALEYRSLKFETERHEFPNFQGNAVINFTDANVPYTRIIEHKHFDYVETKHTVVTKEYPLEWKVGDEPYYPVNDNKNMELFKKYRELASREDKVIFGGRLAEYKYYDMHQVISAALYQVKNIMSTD
# Assay: Inhibition of Escherichia coli UDP galactopyranose mutase at 25 mM
row,SMILES,inhibition [%]
1,OC[C@@H](O)[C@H]1[C@H](O)[C@@H](O)[C@@H]2CCCN12,< 50
2,CCOC(=O)CC[C@@H]1N[C@@H]([C@H](O)CO)[C@H](O)[C@H]1O,< 50
3,O=C1CC[C@H]2[C@H](O)[C@@H](O)[C@H]([C@H](O)CO)N12,< 50
